Laboratory results taken from US20210115494A1, “Improved method for measurement of microbial biomass” (Mycometer A/S, priority 2018, published 2021).

Tests used:
[1] = tested on: NAHA activity from Aureobasidium pullulans; assay: NAHA activity assay, Aureobasidium pullulans; format: biochemical
Procedure: (§1) In order to determine NAHA activity in different samples, the technology in WO 98/033934 was employed: A sample containing a dried or freeze dried organism is added to a buffer solution containing 4-Methylumbelliferyl N-acetyl-β-D-glucosaminide in a concentration of 20 μM. The reaction-time is varied depending on the ambient temperature and according to a reaction-time/temperature data sheet previously developed for fungal NAHA activity at various temperatures, and is 30 minutes at 23° C. The resulting fluorescence formed during the reaction time is monitored in a calibrated fluorometer.
(§2) Experiments were conducted where varying concentrations of AgNO3 was added to an analysis substrate. Furthermore, the experiments where performed on dried or freeze dried materials where both intact and fragmented cells are to be expected to be present.
(§3) Experiments analogous to those in example 1 were carried out, but instead of using non-specific inhibitors, the effect of different concentrations of DNJNAc on the NAHA activity in various biomass containing samples was investigated.

[2] = tested on: NAHA activity from Aspergillus fumigatus fresh from cultivation; assay: NAHA activity assay, Aspergillus fumigatus fresh from cultivation; format: biochemical
Procedure: as §1, §2

[3] = tested on: NAHA activity from Cat dander; assay: NAHA activity assay, cat dander; format: biochemical; conditions: 30 min
Procedure: as §1, §2, §3

[4] = tested on: NAHA activity from Cladosporium sphaerospermum; assay: NAHA activity assay, Cladosporium sphaerospermum; format: biochemical; conditions: Cladosporium sphaerospermum
Procedure: as §1, §2, §3

[5] = tested on: NAHA activity from Graham-flour; assay: NAHA activity assay (4-methylumbelliferyl N-acetyl-β-D-glucosaminide, fluorescence), Graham-flour; format: biochemical; conditions: Graham-flour, 30 min
Procedure: as §1, §2, §3

[6] = tested on: NAHA activity from Mucor hiemalis; assay: NAHA activity assay, Mucor hiemalis; format: biochemical
Procedure: as §1, §2, §3

[7] = tested on: NAHA activity from Fusarium culmorum; assay: NAHA activity assay, Fusarium culmorum; format: biochemical
Procedure: as §1, §2, §3

[8] = tested on: NAHA activity from Acremonium spp.; assay: NAHA activity assay, Acremonium spp.; format: biochemical; conditions: Acremonium spp.
Procedure: as §1, §2, §3

non-fungal NAHA activity = assay: NAHA activity assay, non-fungal sources overall; format: biochemical
Procedure: as §1, §2, §3

[9] = tested on: NAHA activity in Alternaria spp.; assay: NAHA activity pilot experiment, Alternaria spp.; format: biochemical; conditions: 10 μM
Procedure: as §1

[10] = tested on: NAHA activity from Stachybotrys chartarum; assay: NAHA activity assay, Stachybotrys chartarum; format: biochemical
Procedure: as §1, §2, §3

[11] = tested on: NAHA activity from Mugworth pollen; assay: NAHA activity assay, mugworth pollen; format: biochemical; conditions: 30 min
Procedure: as §1, §2, §3

[12] = tested on: NAHA activity from Lepidoglyphus destructor (Storage mite); assay: NAHA activity assay, storage mite; format: biochemical; conditions: for NAHA activity, control without Ag+ = 100%: Lepidoglyphus destructor (Storage mite), 30 min
Procedure: as §1, §2, §3

[13] = tested on: NAHA activity from Grass pollen; assay: NAHA activity assay, grass pollen; format: biochemical; conditions: for NAHA activity, control without Ag+ = 100%: Grass pollen, 30 min
Procedure: as §1, §2, §3

[14] = tested on: NAHA activity in Cladosporium spp.; assay: NAHA activity pilot experiment, Cladosporium spp.; format: biochemical; conditions: 10 μM
Procedure: as §1

[15] = tested on: NAHA activity from Aspergillus fumigatus freeze dried; assay: NAHA activity assay, Aspergillus fumigatus freeze dried; format: biochemical; conditions: Aspergillus fumigatus freeze dried
Procedure: as §1, §2, §3

[16] = tested on: NAHA activity from Birch pollen; assay: NAHA activity assay, birch pollen; format: biochemical; conditions: Birch pollen, 30 min
Procedure: as §1, §2, §3

[17] = tested on: NAHA activity from Human skin cells; assay: NAHA activity assay, human skin cells; format: biochemical; conditions: 30 min
Procedure: as §1, §2, §3

[18] = tested on: NAHA activity from Dermatophagoides pteronyssinus (Dust mite); assay: NAHA activity assay, dust mite; format: biochemical; conditions: Dermatophagoides pteronyssinus (Dust mite), 30 min
Procedure: as §1, §2, §3

fungal NAHA activity = assay: NAHA activity assay, fungal sources overall; format: biochemical, fungi
Procedure: as §1, §2, §3
The experiments were performed with whole cell/organism cultures rather than purified enzyme, which is normally used in experiments on specific inhibition. It is plausible, though, that the surprising non-specific inhibition effect observed for Ag^+ and Hg^+ could be due to the inhibitors being delayed in physically contacting the NAHA enzyme in the fungi when compared to other types of biomass.

[19] = tested on: NAHA activity from Ambrosia psilostachya (Rag weed pollen); assay: NAHA activity assay, rag weed pollen; format: biochemical; conditions: 30 min
Procedure: as §1, §2, §3

[20] = tested on: NAHA activity from Penicillium crysogenum; assay: NAHA activity assay, Penicillium crysogenum; format: biochemical; conditions: Penicillium crysogenum
Procedure: as §1, §2, §3

[21] = tested on: NAHA activity from all sources; assay: NAHA activity assay, all sources; format: biochemical; conditions: 500 μM
Procedure: as §1

O=[N+]([O-])[O-].[Ag+] [Ag+, AgNO3]
NAHA activity, 0 μM Ag+ = 100% ([1]; Ag+ 10 μM): 89%
NAHA activity, 0 μM Ag+ = 100% ([1]; Ag+ 25 μM): 91%
NAHA activity, 0 μM Ag+ = 100% ([1]; Ag+ 100 μM): 96%
NAHA activity, 0 μM Ag+ = 100% ([1]; Ag+ 400 μM): 76%
NAHA activity, 0 μM Ag+ = 100% ([2]; Ag+ 10 μM): 91%
NAHA activity, 0 μM Ag+ = 100% ([2]; Ag+ 25 μM): 103%
NAHA activity, 0 μM Ag+ = 100% ([2]; Ag+ 100 μM): 95%
NAHA activity, 0 μM Ag+ = 100% ([2]; Ag+ 400 μM): 87%
NAHA activity, control without Ag+ = 100% ([3]; Ag+ 10 μM): 96%
NAHA activity, control without Ag+ = 100% ([3]; Ag+ 25 μM): 69%
NAHA activity, control without Ag+ = 100% ([3]; Ag+ 100 μM): 6%
NAHA activity, control without Ag+ = 100% ([3]; Ag+ 400 μM): 3%
NAHA activity, 0 μM Ag+ = 100% ([4]; Ag+ 10 μM): 212%
NAHA activity, 0 μM Ag+ = 100% ([4]; Ag+ 25 μM): 154%
NAHA activity, 0 μM Ag+ = 100% ([4]; Ag+ 100 μM): 137%
NAHA activity, 0 μM Ag+ = 100% ([4]; Ag+ 400 μM): 167%
NAHA activity, control without Ag+ = 100% ([5]; Ag+ 10 μM): 35%
NAHA activity, control without Ag+ = 100% ([5]; Ag+ 25 μM): 33%
NAHA activity, control without Ag+ = 100% ([5]; Ag+ 100 μM): 25%
NAHA activity, control without Ag+ = 100% ([5]; Ag+ 400 μM): 19%
NAHA activity, 0 μM Ag+ = 100% ([6]; Ag+ 10 μM): 88%
NAHA activity, 0 μM Ag+ = 100% ([6]; Ag+ 25 μM): 63%
NAHA activity, 0 μM Ag+ = 100% ([6]; Ag+ 100 μM): 114%
NAHA activity, 0 μM Ag+ = 100% ([6]; Ag+ 400 μM): 57%
NAHA activity, 0 μM Ag+ = 100% ([7]; Ag+ 10 μM): 107%
NAHA activity, 0 μM Ag+ = 100% ([7]; Ag+ 25 μM): 107%
NAHA activity, 0 μM Ag+ = 100% ([7]; Ag+ 100 μM): 110%
NAHA activity, 0 μM Ag+ = 100% ([7]; Ag+ 400 μM): 102%
NAHA activity, 0 μM Ag+ = 100% ([8]; Ag+ 10 μM): 175%
NAHA activity, 0 μM Ag+ = 100% ([8]; Ag+ 25 μM): 143%
NAHA activity, 0 μM Ag+ = 100% ([8]; Ag+ 100 μM): 159%
NAHA activity, 0 μM Ag+ = 100% ([8]; Ag+ 400 μM): 132%
effect on the NAHA activity ([8]; pilot experiment, 10 μM): no significant effect
reduction of the non-fungal NAHA activity, on average (non-fungal NAHA activity; 100 μM in the assay substrate): 82%
NAHA activity retained, average of non-fungal sources, of the control (non-fungal NAHA activity; 400 μM): 13%
effect on the NAHA activity [9]: no significant effect
NAHA activity, 0 μM Ag+ = 100% ([10]; Ag+ 10 μM): 97%
NAHA activity, 0 μM Ag+ = 100% ([10]; Ag+ 25 μM): 91%
NAHA activity, 0 μM Ag+ = 100% ([10]; Ag+ 100 μM): 83%
NAHA activity, 0 μM Ag+ = 100% ([10]; Ag+ 400 μM): 93%
NAHA activity, control without Ag+ = 100% ([11]; Ag+ 10 μM): 46%
NAHA activity, control without Ag+ = 100% ([11]; Ag+ 25 μM): 23%
NAHA activity, control without Ag+ = 100% ([11]; Ag+ 100 μM): 9%
NAHA activity, control without Ag+ = 100% ([11]; Ag+ 400 μM): 8%
NAHA activity, control without Ag+ = 100% ([12]; Ag+ 10 μM): 3%
NAHA activity, control without Ag+ = 100% ([12]; Ag+ 25 μM): 2%
NAHA activity, control without Ag+ = 100% ([12]; Ag+ 100 μM): 1%
NAHA activity, control without Ag+ = 100% ([12]; Ag+ 400 μM): 0%
inhibition of NAHA activity ([12]; pilot experiment, 10 μM, mite Lepidoglyphus): almost total inhibition
NAHA activity, control without Ag+ = 100% ([13]; Ag+ 10 μM): 41%
NAHA activity, control without Ag+ = 100% ([13]; Ag+ 25 μM): 22%
NAHA activity, control without Ag+ = 100% ([13]; Ag+ 100 μM): 6%
NAHA activity, control without Ag+ = 100% ([13]; Ag+ 400 μM): 8%
inhibition of NAHA activity ([13]; pilot experiment, 10 μM, grass pollen): almost total inhibition
effect on the NAHA activity [14]: no significant effect
NAHA activity, 0 μM Ag+ = 100% ([15]; Ag+ 10 μM): 104%
NAHA activity, 0 μM Ag+ = 100% ([15]; Ag+ 25 μM): 108%
NAHA activity, 0 μM Ag+ = 100% ([15]; Ag+ 100 μM): 98%
NAHA activity, 0 μM Ag+ = 100% ([15]; Ag+ 400 μM): 91%
NAHA activity, control without Ag+ = 100% ([16]; Ag+ 10 μM): 91%
NAHA activity, control without Ag+ = 100% ([16]; Ag+ 25 μM): 74%
NAHA activity, control without Ag+ = 100% ([16]; Ag+ 100 μM): 18%
NAHA activity, control without Ag+ = 100% ([16]; Ag+ 400 μM): 11%
NAHA activity, control without Ag+ = 100% ([17]; Ag+ 10 μM): 67%
NAHA activity, control without Ag+ = 100% ([17]; Ag+ 25 μM): 65%
NAHA activity, control without Ag+ = 100% ([17]; Ag+ 100 μM): 63%
NAHA activity, control without Ag+ = 100% ([17]; Ag+ 400 μM): 46%
NAHA activity, control without Ag+ = 100% ([18]; Ag+ 10 μM): 80%
NAHA activity, control without Ag+ = 100% ([18]; Ag+ 25 μM): 57%
NAHA activity, control without Ag+ = 100% ([18]; Ag+ 100 μM): 13%
NAHA activity, control without Ag+ = 100% ([18]; Ag+ 400 μM): 6%
reduction of the fungal NAHA activity (fungal NAHA activity; 100 μM in the assay substrate): zero to very low reduction
fungal NAHA activity retained (fungal NAHA activity; 400 μM): a high percentage
inhibition of the fungal NAHA activity (fungal NAHA activity; inhibitor added to the fungal culture prior to the enzyme assay): complete inhibition
NAHA activity, control without Ag+ = 100% ([19]; Ag+ 10 μM): 69%
NAHA activity, control without Ag+ = 100% ([19]; Ag+ 25 μM): 55%
NAHA activity, control without Ag+ = 100% ([19]; Ag+ 100 μM): 19%
NAHA activity, control without Ag+ = 100% ([19]; Ag+ 400 μM): 17%
NAHA activity, 0 μM Ag+ = 100% ([20]; Ag+ 10 μM): 98%
NAHA activity, 0 μM Ag+ = 100% ([20]; Ag+ 25 μM): 106%
NAHA activity, 0 μM Ag+ = 100% ([20]; Ag+ 100 μM): 87%
NAHA activity, 0 μM Ag+ = 100% ([20]; Ag+ 400 μM): 65%

[Cu+2] [Cu^2+]
inhibiting effect on NAHA activity from all sources [21]: did not exhibit any or exhibited only very slight inhibiting effect

[Hg+] [Hg^+]
inhibition of non-fungal NAHA activity (non-fungal NAHA activity; 10 μM): high inhibition
inhibition of fungal NAHA activity (fungal NAHA activity; 10 μM): less inhibition (but more than Ag^+)
